Patent US9012397B2 (priority 2011, dated 2015)
Read-outs that look alike come from different tables or passages of the source.

How the values were obtained:
Assay type in all cases: in vivo, human
Varicella = conditions: person, 50 μg/gr cream
Procedure: (§1) The method of the invention has been carried out with respect to a number of skin disorders. The patients were treated with one of two peptides, each at a concentration of 50 μg/gr cream (unless otherwise indicated):
(§2) The cream was manufactured by Amiga LTD, Israel, and contains the following components:
3. A person was diagnosed with severe Varicella, which appeared all over the body. The patient had severe itching and skin peeling. No commercial remedy helped. Initially, ZEP3 was topically applied to the hand, with improvement and relief within 24 hours. […] After 10 days, there was no sign of the disease nor were there any future complications.

radiation burns = conditions: person two after mastectomy, severe radiation burns; 500 μg/gr cream several times per day
Procedure: as §1, §2
4. A person with breast cancer received radiation treatment. The person suffered from radiation burns in a large skin area with blisters and open wounds. ZEP4 was applied directly to the wounds over a period of 12 days, 1-2 times per day. • Results: an immediate (˜1 minute) ease in the itching and burning sensation.
7. person two with breast cancer after mastectomy received radiation treatment. The person suffered from severe radiation burns.

Herpes simplex = test system: Herpes simplex
Procedure: as §1, §2
5. A person suffered for many years from Herpes simplex on the neck, with no relief from commercial remedies. ZEP3 was applied topically once a day to the lesions. • Results: relief in itching and skin rash within 10-20 min.
6. person two was diagnosed with Herpes simplex.
7. person one was diagnosed with Herpes simplex.
8. person four suffered from Herpes simplex from childhood.
9. A person suffered from Herpes simplex lesions on the lips and face. […] 1-2 applications cause the lesions to disappear.
10. A person suffered from Herpes simplex on the lips, mainly when under pressure. […] The blisters disappeared after 24 hours.
11. A person suffered from Herpes simplex on the lips. ZEP3 (500 μg/gr cream) was topically applied several times during the day on the wound. • Results: the person felt relief after several minutes. The itching and redness lessened immediately and the wound disappeared after 36 hours.
12. 7 subjects suffering from Herpes simplex were treated with ZEP3.
13. A person suffered from Herpes simplex lesions on the lips.
14. A person has a festering Herpes simplex lesion. Generally, 10 days are required for recuperation.
15. A person suffered intermittingly from Herpes simplex on the lips, with blisters.

burns = test system: burns
Procedure: as §1, §2
1. A person was lightly burned on the back of the hand which touched a very hot object. ZEP4 was immediately applied to the burn site. • Results: the burn mark disappeared within 1 hour. No additional treatments were necessary.
2. A person was severely burned by boiling water on the palm of the hand. […] At the end of 2 weeks there was no sign of the burn, nor thereafter.
3. person two was lightly burned on their finger from boiling oil. […] No further treatments were necessary.
5. A person was burnt on their hand from an oven. […] The burn took on a light brown color.
6. 4 light burn cases, three from touching a hot surface and one from a chemical substance in a laboratory, were treated with ZEP3.
8. person three with irritated skin on the hand due to the rubbing of a watch band. The irritated skin came into contact with a chemical substance (used as a disinfectant). A severe redness developed similar to a burn, and a strong itching feeing. […] D. Oral Cavity

Herpes zoster = conditions: person, 50 μg/gr cream
Procedure: as §1, §2
1. A person was diagnosed with Herpes zoster (shingles), which appeared as a painful, circumferential rash in the abdominal area. The patient had been on antibiotics, with no improvement.
2. A person was diagnosed with Herpes zoster, which appeared as painful lesions with skin edema on the mid back area, appearing several times a year. […] Decrease in the skin rash and the degree of the sore and swelling and a shortening of the time of recovery (healing).

vaginal herpes = conditions: female over 40, lesions on outer genital area; 50 μg/gr cream daily
Procedure: as §1, §2
4. A person over 40 suffered from advance vaginal herpes, with numerous lesions on the outer genital area and pronounced itching and swelling.

mosquito bites = test system: mosquito bites
Procedure: as §1, §2
8. males and four females suffered from mosquito bites. […]
9. 3 subjects suffering from mosquito bites were treated with ZEP3.

skin infection = test system: skin infection
Procedure: as §1, §2
1. person two suffered from an infection on the wrist of the left hand, apparently an allergic reaction to a watch band. Large spots appeared around the wrist accompanied by redness.
2. person three suffered from an infection on the wrist of the left hand, apparently an allergic reaction to a watch band. Large spots appeared around the wrist accompanied by redness and itching.
3. 2 cases of infected skin wounds.

psoriasis = conditions: person
Procedure: as §1, §2
1. A person suffered from intermittent psoriasis on their head over many years. […] The patient believes that the frequency of the outbreaks has been reduced.
2. A person suffered from psoriasis on the hands. […] The patient believes that a 20% improvement has occurred over 2 weeks.
3. A person suffered from psoriasis in the anus.
4. A person suffered from extensive psoriasis at various locations. ZEP3 (500 μg/gr cream) was applied to the sores as needed. • Results: the itching ceased within 12 hours.
5. A person suffered from chronic psoriasis on the elbow.
6. A person suffered from severe psoriasis at various locations. They regularly went for treatments to the Dead Sea in Israel.

[1] = entire body twice a day for two weeks
[2] = person, lesions on lips and face, 50 μg/gr cream
[3] = person, lips, 500 μg/gr cream several times a day
[4] = person, neck, 50 μg/gr cream once a day
[5] = abdominal rash, 2-3 times a day
[6] = person three, wrist infection, allergic reaction to watch band, 500 μg/gr cream several times a day
[7] = chronic psoriasis on elbow, 500 μg/gr cream
[8] = intermittent psoriasis on head, 500 μg/gr cream once or twice a day

Substance: pGLU-ASN-TRP-LYS-C8 [ZEP3]
- clinical outcome (Varicella; [1]): shortening the time of recovery (healing)
- time to decrease in the skin rash and the degree of the sore and swelling (Varicella; [1]): 10 to 20 min
- time until no sign of the disease (Varicella; [1]): 10 days
- time to improvement and relief (Varicella; initial application to the hand): ≤ 24 h
- clinical outcome (radiation burns): felt immediate relief
- clinical outcome (Herpes simplex; 7 subjects, 50 μg/gr cream): found to be therapeutic
- clinical outcome as compared to treatment with Zovirax® (Herpes simplex; person four, 50 μg/gr cream several times): Rapid drying of the lesion, shrinking of swelling and swift conclusion of the outbreak
- recuperation period (Herpes simplex; person, festering lesion, generally 10 days required, 500 μg/gr cream as needed): shortened by half
- clinical outcome (Herpes simplex; [2]): the lesions now appear only infrequently
- number of applications that cause the lesions to disappear (Herpes simplex; [2]): 1-2 applications
- clinical outcome (Herpes simplex; person, lips with blisters, 500 μg/gr cream as needed): immediate relief; the blisters stopped developing and disappeared after several hours
- clinical outcome (Herpes simplex; [3]): felt relief after several minutes. The itching and redness lessened immediately
- time until wound disappeared (Herpes simplex; [3]): 36 h
- clinical outcome (Herpes simplex; [4]): The lesions disappeared and did not return during the last 5 years
- time to relief in itching and skin rash (Herpes simplex; [4]): 10 to 20 min
- clinical outcome (Herpes simplex; person, pricking sensation on upper lip, 500 μg/gr cream as needed): the pricking sensation ceased and Herpes lesions did not develop
- clinical outcome (burns; 4 light burn cases (three hot surface, one chemical substance), 50 μg/gr cream): found to be therapeutic both for the pain and for the healing
- clinical outcome (burns; person three, irritated skin on hand contacted a disinfectant, burn-like redness and itching, ZEP4 and ZEP3 each 500 μg/gr cream): immediate relief from the redness and itching
- clinical outcome (Herpes zoster; [5]): a decrease in the skin redness and the degree of the swelling and itching
- time to improvement in the rash (Herpes zoster; [5]): 2 to 10 min
- clinical outcome (Herpes zoster; lesions with skin edema on mid back, applied 4-5 times): reduced skin edema and an increase in the intervals between attacks. Decrease in the skin rash and the degree of the sore and swelling and a shortening of the time of recovery (healing)
- clinical outcome (vaginal herpes): the redness and swelling decreased, and the lesions healed
- clinical outcome (mosquito bites; 3 subjects, 50 μg/gr cream): found to be therapeutic both for the itching and for the healing
- clinical outcome (mosquito bites; two males and four females, 30-57 years old, (500 μg/gr cream) as needed): an immediate relief from the itching sensation was felt
- clinical outcome (skin infection; 2 cases of infected skin wounds, 50 μg/gr cream): aided in the healing of the wounds
- clinical outcome (skin infection; [6]): immediate relief from the itching
- time to decrease in redness (skin infection; [6]): ≤ 24 h
- clinical outcome (psoriasis; [7]): the flaking of the skin disappeared and the normal skin appearance returned
- time until itching terminated (psoriasis; [7]): 2 h
- time until itching ceased (psoriasis; extensive psoriasis, 500 μg/gr cream as needed): ≤ 12 h
- clinical outcome (psoriasis; [8]): the disease disappeared
- time to relief (psoriasis; [8]): 10 to 20 min
- time until relief is felt (psoriasis; psoriasis in the anus, (500 μg/gr cream) once a day): 4 days
- clinical outcome (psoriasis; psoriasis in the anus, (500 μg/gr cream) once a day, stopped several days, repeated for 4 days): the psoriasis disappeared
- clinical outcome (psoriasis; psoriasis on hands, 500 μg/gr cream once a day): feels relief; the skin is pleasant feeling and not itchy
- improvement as believed by the patient (psoriasis; psoriasis on hands, 500 μg/gr cream once a day, over 2 weeks): 20%
